“And” between values parts separate entries of the source, which are not always exact repeats. Equal values may be shown once.
How the values were obtained:
[1] = test system: fibers presumed to be nociceptors; set-up: species or system Swiss Webster mice
[2] = molecular target: T1, TRPV1 receptor (Mus musculus, UniProt Q704Y3); assay: Capsaicin-induced Ca2+ rise in DRG neuronal primary cultures (Fluo-4 Ca2+ imaging); assay type: cell-based; set-up: we used Ca^2+ imaging of DRG neuronal primary culture for these experiments; endogenous in cells; host or cells: primary dorsal root ganglion neurons (thoracolumbar levels)
Experimental: The spinal column was removed from the body, transferred to a beaker containing ice-cold Krebs, and bisected longitudinally. DRG were exposed and collected from the thoracolumbar levels. Whole DRG were washed twice with sterile Leibovitz's L-15 medium (GIBCO, Gaithersburg, Md.), and incubated for 40 min in collagenase type 1 at 1 mg/ml (Sigma-Aldrich; Oakville, ON, Canada) and 0.5 ml trypsin (0.25%, GIBCO) in 20 ml L-15 at 37° C. After further addition of 5 ml L-15 containing 10% fetal bovine serum (FBS, GIBCO), the ganglia were centrifuged for 5 min at 1,000 rpm, then washed twice with growth medium (L-15, containing 10% FBS, 1% Penicillin/Streptomycin/Glutamine, 1% HEPES and 1% Na Pyruvate). […]
DRG neurons were placed within a plexiglass recording dish and loaded with the Ca^2+ indicator Fluo-4-AM (8 μM) diluted in Krebs with 0.1% pluronic acid (in DMSO) at 37° C. for 60 min. […] Fluorescence intensity in individual neurons was recorded by Simple PCI 6 software (Compix Inc, Imaging systems, Sewickley, Pa.). […] Images, recorded at 0.9 frame/s, were stored on a local hard drive. Image files were analyzed off-line using Image J software (NIH, USA, http://imagej.nih.gov/ij). The increase in Fluo-4 Ca^2+ when applying capsaicin was measured as the ratio (F/F0) fluorescence intensity after capsaicin (F) divided by the intensity before capsaicin (F0). […]

[3] = molecular target: T1, TRPV1 receptor; set-up: Segments of distal jejunum (˜2.5 cm) with attached mesenteric tissue were removed from freshly killed animals; from tissue; host or cells: mouse distal jejunum with attached mesenteric nerve bundle (ex vivo); species or system Swiss Webster mice

T1 sequence (Q704Y3 whole entry): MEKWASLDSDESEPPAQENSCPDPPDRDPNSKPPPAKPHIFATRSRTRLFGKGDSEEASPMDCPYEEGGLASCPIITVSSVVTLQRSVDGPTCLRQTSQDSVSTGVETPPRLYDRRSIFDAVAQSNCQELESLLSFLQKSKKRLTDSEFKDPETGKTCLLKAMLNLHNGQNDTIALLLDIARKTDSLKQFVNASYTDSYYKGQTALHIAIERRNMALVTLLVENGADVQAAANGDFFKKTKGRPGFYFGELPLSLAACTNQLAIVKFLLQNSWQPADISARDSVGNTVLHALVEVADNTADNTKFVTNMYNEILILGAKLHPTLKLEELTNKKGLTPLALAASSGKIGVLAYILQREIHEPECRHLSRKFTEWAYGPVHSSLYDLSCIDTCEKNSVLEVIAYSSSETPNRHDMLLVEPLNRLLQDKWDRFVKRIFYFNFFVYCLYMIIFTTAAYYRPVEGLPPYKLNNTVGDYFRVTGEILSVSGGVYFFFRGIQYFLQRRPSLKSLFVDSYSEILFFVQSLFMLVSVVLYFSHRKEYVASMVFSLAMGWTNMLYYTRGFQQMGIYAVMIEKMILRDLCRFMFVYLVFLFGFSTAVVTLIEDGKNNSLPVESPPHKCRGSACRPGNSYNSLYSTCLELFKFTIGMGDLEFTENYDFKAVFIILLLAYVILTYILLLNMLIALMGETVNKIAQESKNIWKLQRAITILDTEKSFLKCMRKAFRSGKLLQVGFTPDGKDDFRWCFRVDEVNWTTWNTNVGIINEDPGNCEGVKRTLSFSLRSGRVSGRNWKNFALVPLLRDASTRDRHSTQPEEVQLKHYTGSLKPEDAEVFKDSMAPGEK

| Compound | single-unit response to distension [1] [Hz] | fluorescence rise ratio F/F0 evoked by capsaicin ([2]; 1 μM capsaicin alone (control group, N=14)) | time to increase in intracellular Ca2+ after puffing capsaicin ([2]; 1 μM capsaicin onto DRG neurons) [s] | capsaicin-evoked excitation with intramural synaptic blockage ([3]; 1 μM capsaicin in presence of 500 nM each ω-Cg-GVIA and ω-Cg-MVIIC, n=12, P=0.947) [%] | capsaicin-evoked excitation (firing frequency increase) ([3]; 1 μM capsaicin serosal, alone (control group), n=17) | maximal response (Top) obtained with capsaicin ([3]; capsaicin alone, increase in firing frequency above baseline) [%] | onset latency of capsaicin-induced firing rate increase ([3]; capsaicin applied to serosal compartment) [s] | Emax ([3]; read-out: maximal response (Top) obtained with capsaicin, capsaicin alone, increase in firing frequency above baseline) [%] | EC50 ([3]; serosal capsaicin 100 nM-100 μM, vagotomized mice, three-parameter logistic fit, read-out: EC50 for capsaicin alone (increase in firing frequency)) [nM] |
| --- | --- | --- | --- | --- | --- | --- | --- | --- | --- |
| COc1cc(CNC(=O)CCCCCC(C)C)c(I)cc1O [6-Iodonordihydrocapsaicin] | 2.23±0.50 | – | – | – | – | – | – | – | – |
| COc1cc(CNC(=O)CCCC/C=C/C(C)C)ccc1O [capsaicin] | – | 2.36±0.31 | ~30 | 219.1±72.6 | 187.5±42.9% and 187.5±43% | 238±27 | ~60 | 238 ± 27.5 | 200 |
